Results: patent US20210369853A1, “TARGETED PROTEASE DEGRADATION PLATFORM” (EUBULUS BIOTHERAPEUTICS INC., priority 2018, published 2021)
Where two headings read alike, the source gives them in different places.

How the values were obtained:
Type in all cases: cell-based
[1] = tested on: Human Monocytic Leukemia MV4-11; test: Cell proliferation experiment (Alarm blue, 72 h, EC50); details: Homo sapiens
In short: (§1)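 Duplicate wells per concentration, 5-fold dilution series, 72 h continuous exposure of log-phase cells; read-out Alamar blue fluorescence, EC50 derived by curve fit with minimum, maximum and slope terms.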

[2] = tested on: Human Colon Cancer HCT-116; test: as above; details: HCT116 cells
In short: as §1

[3] = tested on: Human Acute Myelomonocytic Leukemia HL-60; test: as above; details: HL-60 cells
In short: as §1

PLK1 = target: T1, PLK1 (Homo sapiens, UniProt P53350); test: Western blot, protein degradation (DC50)
T1 construct: endogenous in cells
In short: (§2)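 Cells treated with compound, lysed in RIPA and resolved by SDS-PAGE (4%-12%); PVDF blots probed with primary antibody overnight at 4° C, then secondary antibody, and developed with ECL. Band intensities quantified by densitometry to give degradation.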

PBMC [4] = test: Cell proliferation experiment (EC50), PBMC
HUVEC [5] = test: Cell proliferation experiment (EC50), HUVEC; details: Homo sapiens
[6] = tested on: Human Glioma Cells U-87 MG; test: Cell proliferation experiment (Alarm blue, 72 h, EC50); details: U-87MG cells
In short: as §1

[7] = tested on: Human Small Cell Lung Cancer NCI-H82; test: as above; details: Homo sapiens, NCI-H82; NCIH82 cells
In short: as §1

[8] = tested on: Human Monocytic Leukemia THP-1; test: as above; details: THP-1 cells
In short: as §1

[9] = tested on: Human Breast Cancer MDA-MB-231; test: as above; details: MDA-MB-231 cells
In short: as §1

Human Colon Cancer HT-29 = test: as above; details: HT-29 cells
In short: as §1

[10] = tested on: Human cervical adenocarcinoma cells Hela; test: as above
In short: as §1

BRD4 = target: T2, BRD4 (Homo sapiens, UniProt O60885); test: Western blot, protein degradation (DC50)
T2 construct: endogenous in cells
In short: as §2

HUVEC [11] = test: Cell proliferation experiment (EC50), HUVEC; details: Homo sapiens; remark: listed apart in the source
PBMC [12] = test: Cell proliferation experiment (EC50), PBMC; remark: listed apart in the source
[13] = tested on: Human Acute Lymphoblastic Leukemia Cells MOLT-4; test: Cell proliferation experiment (Alarm blue, 72 h, EC50); details: MOL4-4 cells
In short: as §1

Daudi [14] = test: Cell proliferation experiment (EC50), Daudi; details: Homo sapiens; Daudi cells
[15] = tested on: Human Ovarian Cancer SK-OV-3; test: Cell proliferation experiment (Alarm blue, 72 h, EC50); details: SKO3 cells
In short: as §1

A549 = test: Cell proliferation experiment (EC50), A549; details: Homo sapiens; A549 cells
U937 = test: Cell proliferation experiment (EC50), U937; details: Homo sapiens, U-937; U937 cells
PBMC [16] = test: Cell proliferation experiment (EC50), PBMC; remark: listed apart in the source
HUVEC [17] = test: Cell proliferation experiment (EC50), HUVEC
Daudi [18] = test: Cell proliferation experiment (EC50), Daudi; details: Homo sapiens; Daudi cells; remark: listed apart in the source
[19] = 6 h, western blot, read-out: BRD4 DC50 (6 h)
[20] = 6 h, western blot, read-out: PLK1 DC50 (6 h)
[21] = 24 h, western blot, read-out: BRD4 DC50 (24 h)
[22] = 24 h, western blot, read-out: PLK1 DC50 (24 h)

T1 sequence (P53350 whole entry): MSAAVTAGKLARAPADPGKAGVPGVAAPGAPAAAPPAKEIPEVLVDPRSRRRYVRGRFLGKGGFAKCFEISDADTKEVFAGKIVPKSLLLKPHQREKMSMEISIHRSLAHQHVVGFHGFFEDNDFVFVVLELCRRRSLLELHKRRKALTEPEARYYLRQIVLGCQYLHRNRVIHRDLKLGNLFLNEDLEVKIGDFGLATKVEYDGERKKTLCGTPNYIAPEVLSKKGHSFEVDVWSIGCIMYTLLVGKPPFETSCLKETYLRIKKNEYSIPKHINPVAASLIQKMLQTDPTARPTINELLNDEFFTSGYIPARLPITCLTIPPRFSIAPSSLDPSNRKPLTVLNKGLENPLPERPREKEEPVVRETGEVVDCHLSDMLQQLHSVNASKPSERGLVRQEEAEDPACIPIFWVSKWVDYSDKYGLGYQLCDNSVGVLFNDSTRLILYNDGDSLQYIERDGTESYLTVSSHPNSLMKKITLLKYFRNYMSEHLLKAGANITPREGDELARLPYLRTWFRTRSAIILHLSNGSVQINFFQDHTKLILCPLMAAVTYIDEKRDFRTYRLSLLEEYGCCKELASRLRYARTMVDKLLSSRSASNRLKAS

Row | SMILES | EC50 ([1]; MV4-11, MV4;11 cells) [nM] | EC50 ([2]; Homo sapiens, HCT-116) [nM] | EC50 [3] [nM] | DC50 (PLK1; 6 h, read-out: PLK1 DC50 (6 h)) [nM] | EC50 ([6]; Homo sapiens) [nM] | EC50 ([1]; MV4;11 cells) [nM] | EC50 [7] [nM] | EC50 [8] [nM] | EC50 ([9]; Homo sapiens) [nM] | EC50 (Human Colon Cancer HT-29; Homo sapiens) [nM] | EC50 ([10]; Homo sapiens) [nM] | EC50 (HUVEC [11]) [nM] | DC50 (BRD4; [19]) [nM] | DC50 (PLK1; [20]) [nM] | EC50 (PBMC [12]) [nM] | EC50 [13] [nM] | also measured
1 | O=C1CCC(N2Cc3c(NC(=O)CCOCCOCCOCCNC(=O)[C@]4(Cc5cccc(Nc6nccs6)n5)CC[C@@H](Oc5cccc(Cl)c5F)CC4)cccc3C2=O)C(=O)N1 (stereo partly shown) [UB-180581] | 10 to 100 | > 1000 | 100 to 1000 | < 10 | – | – | – | – | – | – | – | – | – | – | – | – | EC50 (PBMC [4]): > 1000 nM; EC50 (HUVEC [5]): > 1000 nM
2 | CC[C@@H]1C(=O)N(C)c2cnc(Nc3ccc(C(=O)NCCOCCOCCOCCNCCC(=O)Nc4cccc5c4CN(C4CCC(=O)NC4=O)C5=O)cc3OC)nc2N1C1CCCC1 (stereo partly shown) [UB-180633] | – | > 1000 | 100 to 1000 | 100 to 1000 | 100 to 1000 | 10 to 100 | > 1000 | 100 to 1000 | 100 to 1000 | 100 to 1000 | 100 to 1000 | – | – | – | – | – | DC50 (BRD4; 6 h, read-out: BRD4 DC50 (6 h)): < 10 nM; DC50 (BRD4; 24 h, read-out: BRD4 DC50 (24 h)): < 10 nM; DC50 (PLK1; 24 h, read-out: PLK1 DC50 (24 h)): 10 to 100 nM; EC50 (PBMC [4]): > 1000 nM; EC50 (HUVEC [5]): > 1000 nM
3 | CC[C@@H]1C(=O)N(C)c2cnc(Nc3ccc(C(=O)NCCOCCNCCCCCCC(=O)Nc4cccc5c4CN(C4CCC(=O)NC4=O)C5=O)cc3OC)nc2N1C1CCCC1 (stereo partly shown) [UB-180655] | – | – | – | – | – | 10 to 100 | – | – | – | – | – | > 1000 | < 10 | 100 to 1000 | > 1000 | – | –
4 | CC[C@@H]1C(=O)N(C)c2cnc(Nc3ccc(C(=O)NCCCNCCCCCC(=O)Nc4cccc5c4CN(C4CCC(=O)NC4=O)C5=O)cc3OC)nc2N1C1CCCC1 (stereo partly shown) [UB-180660] | 10 to 100 | 100 to 1000 | 100 to 1000 | – | 100 to 1000 | – | > 1000 | 100 to 1000 | 100 to 1000 | 100 to 1000 | 100 to 1000 | > 1000 | 10 to 100 | < 10 | > 1000 | – | –
5 | CC[C@@H]1C(=O)N(C)c2cnc(Nc3ccc(C(=O)NCCOCCNCCCCCCC(=O)Nc4cccc5c4CN(C4CCC(=O)NC4=O)C5=O)cc3OC)nc2N1Cc1ccc(Cl)s1 (stereo partly shown) [UB-180675] | – | – | – | – | – | 10 to 100 | – | – | – | – | – | > 1000 | < 10 | < 10 | > 1000 | – | –
6 | CC[C@@H]1C(=O)N(C)C2CNC(Nc3ccc(C(=O)NCCCNCCCC(=O)Nc4cccc5c4CN(C4CCC(=O)NC4=O)C5=O)cc3OC)NC2N1Cc1ccc(Cl)s1 (stereo partly shown) [UB-180678] | – | – | 100 to 1000 | – | 100 to 1000 | 10 to 100 | 100 to 1000 | – | 100 to 1000 | 100 to 1000 | – | 100 to 1000 | < 10 | 100 to 1000 | 100 to 1000 | 100 to 1000 | –
7 | CC[C@@H]1C(=O)N(C)c2cnc(Nc3ccc(C(=O)NCc4cn(CCNCCC(=O)Nc5cccc6c5CN(C5CCC(=O)NC5=O)C6=O)nn4)cc3OC)nc2N1C1CCCC1 (stereo partly shown) [UB-180680] | – | – | 100 to 1000 | – | 100 to 1000 | 10 to 100 | 100 to 1000 | – | 100 to 1000 | 100 to 1000 | – | > 1000 | < 10 | < 10 | > 1000 | 100 to 1000 | EC50 (Daudi [14]): 100 to 1000 nM; DC50 (BRD4; [21]): < 10 nM; DC50 (PLK1; [22]): 10 to 100 nM
8 | CC[C@@H]1CN(C)c2cnc(Nc3ccc(C(=O)NCCOCCOCCOCCNCCC(=O)Nc4cccc5c4CN(C4CCC(=O)NC4=O)C5=O)cc3OC)nc2N1Cc1ccc(Cl)s1 (stereo partly shown) [UB-180701] | – | 100 to 1000 | 100 to 1000 | – | 100 to 1000 | < 10 | 100 to 1000 | 100 to 1000 | 100 to 1000 | 100 to 1000 | 100 to 1000 | > 1000 | < 10 | 10 to 100 | > 1000 | 100 to 1000 | EC50 (Daudi [14]): 100 to 1000 nM; EC50 ([15]; Homo sapiens, SK-OV-3): 100 to 1000 nM; DC50 (BRD4; [21]): < 10 nM; DC50 (PLK1; [22]): < 10 nM; EC50 (A549): 100 to 1000 nM; EC50 (U937): 100 to 1000 nM
9 | CC[C@@H]1C(=O)N(C)c2cnc(Nc3ccc(C(=O)NC4CCN(CCNCCOCC(=O)Nc5cccc6c5CN(C5CCC(=O)NC5=O)C6=O)CC4)cc3OC)nc2N1Cc1ccc(Cl)s1 (stereo partly shown) [UB-180711] | – | 100 to 1000 | 100 to 1000 | – | 100 to 1000 | < 10 | 100 to 1000 | 100 to 1000 | 100 to 1000 | 100 to 1000 | 100 to 1000 | 100 to 1000 | < 10 | 10 to 100 | 100 to 1000 | 100 to 1000 | EC50 (Daudi [14]): 100 to 1000 nM; EC50 ([15]; Homo sapiens, SK-OV-3): 100 to 1000 nM; DC50 (BRD4; [21]): < 10 nM; DC50 (PLK1; [22]): < 10 nM; EC50 (A549): 100 to 1000 nM; EC50 (U937): 100 to 1000 nM
10 | O=C1CCC(N2Cc3c(NC(=O)CCOCCOCCOCCNCCOCCNC(=O)[C@]4(Cc5cccc(Nc6nccs6)n5)CC[C@@H](Oc5cccc(Cl)c5F)CC4)cccc3C2=O)C(=O)N1 (stereo partly shown) [UB-180804] | 100 to 1000 | – | > 1000 | – | – | – | – | – | – | – | – | – | – | – | – | – | EC50 (PBMC [16]): > 1000 nM; EC50 (HUVEC [17]; Homo sapiens): > 1000 nM
11 | O=C1CCC(N2Cc3c(NC(=O)CNCCOCCN4CCN(CCNC(=O)[C@]5(Cc6cccc(Nc7nccs7)n6)CC[C@@H](Oc6cccc(Cl)c6F)CC5)CC4)cccc3C2=O)C(=O)N1 (stereo partly shown) [UB-180810] | 100 to 1000 | 100 to 1000 | – | < 10 | – | – | – | – | – | – | – | – | – | – | – | – | EC50 (PBMC [16]): > 1000 nM; EC50 (HUVEC [17]; Homo sapiens): > 1000 nM
12 | CC[C@@H]1C(=O)N(C)c2cnc(Nc3ccc(C(=O)NC4CCN(CCOCCN(CC(=O)Nc5cccc6c5CN(C5CCC(=O)NC5=O)C6=O)C(=O)OC(C)C(C)SSC[C@@H](NC(=O)CCOCCOCCOCCOCCOCCOCCNC(=O)CC[C@H](NC(=O)c5ccc(NCc6cnc7nc(N)[nH]c(=O)c7n6)cc5)C(=O)O)C(=O)O)CC4)cc3OC)nc2N1C1CCCC1 (stereo partly shown) [UB-180829] | – | – | – | – | – | – | – | – | – | – | – | – | – | – | – | – | EC50 [6]: 100 to 1000 nM; EC50 [2]: 100 to 1000 nM; EC50 [9]: 100 to 1000 nM; EC50 (Human Colon Cancer HT-29): 100 to 1000 nM; EC50 [10]: 100 to 1000 nM; EC50 [15]: 100 to 1000 nM; EC50 (PBMC [16]): > 1000 nM; EC50 (HUVEC [17]): > 1000 nM
13 | CC[C@@H]1C(=O)N(C)c2cnc(Nc3ccc(C(=O)NCCOCCOCCOCCOCCNCC#Cc4cccc5c4CN(C4CCC(=O)NC4=O)C5=O)cc3OC)nc2N1C1CCCC1 (stereo partly shown) [UB-180844] | < 10 | – | – | 10 to 100 | 100 to 1000 | – | 100 to 1000 | – | – | 100 to 1000 | – | – | – | – | – | – | DC50 (BRD4; 6 h, read-out: BRD4 DC50 (6 h)): 10 to 100 nM; EC50 (Daudi [18]): 100 to 1000 nM
